One assay deals with Carbonic anhydrase 1 (Homo sapiens, UniProt P00915). Description: Inhibition of human recombinant carbonic anhydrase 1 assessed as inhibition constant incubated for 10 mins by phenol red dye based stopped-flow CO2 hydration assay.
The next assay has as its target Carbonic anhydrase 12 (Homo sapiens, UniProt O43570). As to the kind of experiment: Inhibition of human recombinant carbonic anhydrase 12 assessed as inhibition constant incubated for 10 mins by phenol red dye based stopped-flow CO2 hydration assay.
A further assay concerns the target Carbonic anhydrase 9 (Homo sapiens, UniProt Q16790). Description: Inhibition of human recombinant carbonic anhydrase 9 assessed as inhibition constant incubated for 10 mins by phenol red dye based stopped-flow CO2 hydration assay.
The next assay concerns the target Carbonic anhydrase 2 (Homo sapiens, UniProt P00918). Description: Inhibition of human recombinant carbonic anhydrase 2 assessed as inhibition constant incubated for 10 mins by phenol red dye based stopped-flow CO2 hydration assay.
In another assay the target is Carbonic anhydrase 4 (Homo sapiens, UniProt P22748). Description: Inhibition of human recombinant carbonic anhydrase 4 assessed as inhibition constant incubated for 10 mins by phenol red dye based stopped-flow CO2 hydration assay.

One may read the Ki as a dissociation constant, usually derived from enzyme kinetics or from competition with a known ligand.

Molecules are shown by their SMILES.

Carbonic anhydrase 1, sequence (P00915 whole entry): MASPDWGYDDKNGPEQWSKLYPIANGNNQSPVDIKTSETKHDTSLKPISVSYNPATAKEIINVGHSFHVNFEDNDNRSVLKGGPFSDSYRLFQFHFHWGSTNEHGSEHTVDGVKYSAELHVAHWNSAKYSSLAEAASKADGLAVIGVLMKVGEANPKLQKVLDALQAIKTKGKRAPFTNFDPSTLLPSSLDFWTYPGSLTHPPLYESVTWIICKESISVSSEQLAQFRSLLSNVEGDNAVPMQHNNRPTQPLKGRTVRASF
Carbonic anhydrase 12, sequence (O43570 whole entry): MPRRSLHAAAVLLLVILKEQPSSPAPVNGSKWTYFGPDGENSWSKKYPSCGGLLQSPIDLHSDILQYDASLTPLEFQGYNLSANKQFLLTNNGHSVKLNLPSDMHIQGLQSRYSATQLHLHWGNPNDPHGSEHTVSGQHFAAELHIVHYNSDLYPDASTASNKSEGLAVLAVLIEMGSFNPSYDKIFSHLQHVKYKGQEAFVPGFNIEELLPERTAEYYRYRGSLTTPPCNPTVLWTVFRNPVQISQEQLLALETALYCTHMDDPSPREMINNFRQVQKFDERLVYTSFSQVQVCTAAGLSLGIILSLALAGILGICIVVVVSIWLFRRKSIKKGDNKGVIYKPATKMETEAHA
Carbonic anhydrase 4, sequence (P22748 whole entry): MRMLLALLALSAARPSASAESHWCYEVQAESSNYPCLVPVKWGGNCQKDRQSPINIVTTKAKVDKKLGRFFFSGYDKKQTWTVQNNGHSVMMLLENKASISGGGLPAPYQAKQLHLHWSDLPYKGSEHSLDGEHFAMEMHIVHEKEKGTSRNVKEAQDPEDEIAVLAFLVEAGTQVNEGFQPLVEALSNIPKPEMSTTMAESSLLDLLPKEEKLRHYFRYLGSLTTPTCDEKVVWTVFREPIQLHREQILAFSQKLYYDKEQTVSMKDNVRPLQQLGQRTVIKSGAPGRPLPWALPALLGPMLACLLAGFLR

Take `COc1ccc(-c2cc(C(=O)Nc3ccc(S(N)(=O)=O)cc3)c3ccccc3n2)c(OC)c1`: the Ki on Carbonic anhydrase 1 came to 5320 nM; at Carbonic anhydrase 12, 261 nM; on Carbonic anhydrase 9, 93.2 nM; on Carbonic anhydrase 2 it was 598 nM.
For `NS(=O)(=O)c1ccc(NC(=O)c2cc(-c3ccc4c(c3)OCO4)nc3ccccc23)cc1`, in that order: 256 nM, 72.1 nM, 6.5 nM and 7.1 nM.
For `NS(=O)(=O)c1cccc(NC(=O)c2cc(-c3cccc(Br)c3)nc3ccccc23)c1`, in that order: 854 nM, 341 nM, 91.3 nM and 156 nM.
In the case of `NS(=O)(=O)c1ccc(CCNC(=O)c2cc(-c3cccc(C(F)(F)F)c3)nc3ccccc23)cc1`, the Ki was 1820 nM on Carbonic anhydrase 1, 6.9 nM on Carbonic anhydrase 12, 74.2 nM at Carbonic anhydrase 9 and 91.1 nM at Carbonic anhydrase 2.
Take `NS(=O)(=O)c1ccc(CCNC(=O)c2cc(-c3ccccc3)nc3ccc(Br)cc23)cc1`: the Ki on Carbonic anhydrase 1 is 6280 nM; on Carbonic anhydrase 12 it was 758 nM; at Carbonic anhydrase 9, 58.8 nM; on Carbonic anhydrase 2, 867 nM.
As for `NS(=O)(=O)c1cccc(NC(=O)c2cc(-c3ccccc3)nc3ccccc23)c1`, the Ki at Carbonic anhydrase 1 was found to be 966 nM; at Carbonic anhydrase 12, 9.6 nM; at Carbonic anhydrase 9, 67.4 nM; at Carbonic anhydrase 2 it was 298 nM.
For `COc1ccc2nc(-c3ccc(Cl)cc3Cl)cc(C(=O)Nc3cccc(S(N)(=O)=O)c3)c2c1`, in that order: 896 nM, 64.8 nM, 93.5 nM and 61.7 nM.
For `NS(=O)(=O)c1ccc(CCNC(=O)c2cc(-c3ccccc3)nc3ccc(Cl)cc23)cc1`, in that order: 1890 nM, 6.7 nM, 47.6 nM and 42.9 nM.
Take `NS(=O)(=O)c1ccc(CCNC(=O)c2cc(-c3ccc4c(c3)OCO4)nc3ccccc23)cc1`: the Ki at Carbonic anhydrase 1 stood at 3620 nM; on Carbonic anhydrase 12 it was 555 nM; at Carbonic anhydrase 9, 22.8 nM; at Carbonic anhydrase 2, 18.3 nM.
For `COc1ccc(-c2cc(C(=O)NCCc3ccc(S(N)(=O)=O)cc3)c3cc(Cl)ccc3n2)cc1OC`, the Ki on Carbonic anhydrase 1 was 765 nM; at Carbonic anhydrase 12, 302 nM; at Carbonic anhydrase 9, 91.6 nM; on Carbonic anhydrase 2, 187 nM.
Regarding `COc1ccc2nc(-c3ccccc3OC)cc(C(=O)NCCc3ccc(S(N)(=O)=O)cc3)c2c1`, the Ki at Carbonic anhydrase 1 amounted to 902 nM; at Carbonic anhydrase 12, 851 nM; at Carbonic anhydrase 9, 67.7 nM; at Carbonic anhydrase 2, 382 nM.
The matching figures for `NS(=O)(=O)c1ccc(CCNC(=O)c2cc(-c3cccc(Br)c3)nc3ccccc23)cc1`: 977 nM, 30.9 nM, 39.3 nM and 9.6 nM.
Take `O=C(/C=C/c1sc(N2CCOCC2)nc1-c1ccc([N+](=O)[O-])cc1)Nc1ccc(Br)cc1`: the Ki on Carbonic anhydrase 12 is 8.8 nM; at Carbonic anhydrase 9 it was 54.7 nM; at Carbonic anhydrase 2, 9.3 nM.
For the compound `NS(=O)(=O)c1ccc(NC(=O)c2cc(-c3cccc(Cl)c3)nc3ccccc23)cc1`, the Ki on Carbonic anhydrase 1 is 838 nM; on Carbonic anhydrase 12 it was 72.8 nM; at Carbonic anhydrase 9, 97.1 nM; on Carbonic anhydrase 2, 141 nM.
The matching figures for `COc1ccc2nc(-c3ccc(OC)c(OC)c3)cc(C(=O)NCCc3ccc(S(N)(=O)=O)cc3)c2c1`: 5540 nM, 218 nM, 70.3 nM and 588 nM.
With `NS(=O)(=O)c1ccc(NC(=O)Cn2cc(/C=C/C(=O)c3cccc(C(F)(F)F)c3)c3ccccc32)cc1`, the Ki at Carbonic anhydrase 9 was 31 nM; on Carbonic anhydrase 2, 2.3 nM.
`NS(=O)(=O)c1cccc(NC(=O)c2cc(-c3cccc(Cl)c3)nc3ccc(Cl)cc23)c1`: the Ki at Carbonic anhydrase 1 was determined as 848 nM; on Carbonic anhydrase 12, 527 nM; at Carbonic anhydrase 9, 349 nM; on Carbonic anhydrase 2, 257 nM.
Take `Cc1ccc(-c2cc(C(=O)Nc3cccc(S(N)(=O)=O)c3)c3cc(Cl)ccc3n2)cc1`: the Ki on Carbonic anhydrase 1 is 3940 nM; on Carbonic anhydrase 12 it was 757 nM; at Carbonic anhydrase 9, 245 nM; on Carbonic anhydrase 2 it was 293 nM.
For `COc1ccc(-c2cc(C(=O)Nc3ccc(S(N)(=O)=O)cc3)c3cc(Cl)ccc3n2)cc1OC`, in that order: 797 nM, 215 nM, 309 nM and 305 nM.
The matching figures for `COc1ccc2nc(-c3ccccc3C)cc(C(=O)Nc3ccc(S(N)(=O)=O)cc3)c2c1`: 555 nM, 46.9 nM, 21.4 nM and 28.5 nM.
For `NS(=O)(=O)c1cccc(NC(=O)c2cc(-c3ccc4c(c3)OCO4)nc3ccccc23)c1`, in that order: 1460 nM, 88.9 nM, 65.4 nM and 478 nM.
With `COc1ccc(-c2cc(C(=O)Nc3cccc(S(N)(=O)=O)c3)c3ccccc3n2)cc1OC`, the Ki at Carbonic anhydrase 1 is 888 nM; at Carbonic anhydrase 12, 76.2 nM; on Carbonic anhydrase 9, 78.2 nM; at Carbonic anhydrase 2, 388 nM.
The matching figures for `NS(=O)(=O)c1ccc(NC(=O)c2cc(-c3ccccc3)nc3ccccc23)cc1`: 537 nM, 130 nM, 70.4 nM and 54.7 nM.
The matching figures for `COc1ccc(-c2cc(C(=O)Nc3cccc(S(N)(=O)=O)c3)c3cc(Cl)ccc3n2)cc1OC`: 831 nM, 423 nM, 247 nM and 253 nM.
The matching figures for `COc1ccc2nc(-c3ccc(OC)c(OC)c3)cc(C(=O)Nc3cccc(S(N)(=O)=O)c3)c2c1`: 665 nM, 426 nM, 51.3 nM and 97.8 nM.
As to `NS(=O)(=O)c1cccc(NC(=O)c2cc(-c3ccccc3)nc3ccc(Cl)cc23)c1`, the Ki on Carbonic anhydrase 1 is 6600 nM; on Carbonic anhydrase 12 it was 71.1 nM; on Carbonic anhydrase 9 it was 330 nM; at Carbonic anhydrase 2 it was 172 nM.
For `COc1ccc2nc(-c3ccccc3)cc(C(=O)Nc3ccc(S(N)(=O)=O)cc3)c2c1`, in that order: 535 nM, 56.7 nM, 35.7 nM and 91.3 nM.
With `CCN(C1CC(C)S(=O)(=O)c2sc(S(N)(=O)=O)cc21)S(=O)(=O)c1cccc2cccnc12` (stereo not drawn), the figures for the Ki on Carbonic anhydrase 2 and at Carbonic anhydrase 4 were 5 nM and 10 nM, respectively.
As for `COc1ccc2nc(-c3ccccc3)cc(C(=O)NCCc3ccc(S(N)(=O)=O)cc3)c2c1`, the Ki on Carbonic anhydrase 1 is 933 nM; at Carbonic anhydrase 12, 391 nM; at Carbonic anhydrase 9, 75.5 nM; on Carbonic anhydrase 2 it was 487 nM.
The matching figures for `NS(=O)(=O)c1cccc(NC(=O)c2cc(-c3cccc(C(F)(F)F)c3)nc3ccccc23)c1`: 3770 nM, 365 nM, 64.6 nM and 87.8 nM.
With `COc1ccc2nc(-c3ccc(Cl)cc3Cl)cc(C(=O)NCCc3ccc(S(N)(=O)=O)cc3)c2c1`, the Ki at Carbonic anhydrase 1 came out at 6340 nM; on Carbonic anhydrase 12 it was 438 nM; at Carbonic anhydrase 9 it was 73.8 nM; on Carbonic anhydrase 2, 674 nM.
Consider `NS(=O)(=O)c1cc(C(=O)CSc2nc3c(cnc4ccccc43)[nH]2)ccc1Cl`, for which the Ki on Carbonic anhydrase 1 is 1.3 nM; on Carbonic anhydrase 12, 0.1 nM; at Carbonic anhydrase 2, 0.03 nM.
In the case of `NS(=O)(=O)c1ccc(NC(=O)c2cc(-c3cccc(C(F)(F)F)c3)nc3ccccc23)cc1`, the Ki on Carbonic anhydrase 1 was 659 nM; on Carbonic anhydrase 12 it was 169 nM; on Carbonic anhydrase 9 it was 421 nM; on Carbonic anhydrase 2, 262 nM.
For `COc1ccc2nc(-c3ccc(OC)c(OC)c3)cc(C(=O)Nc3ccc(S(N)(=O)=O)cc3)c2c1`, in that order: 416 nM, 75.5 nM, 9.1 nM and 26.2 nM.
For `COc1ccc(-c2cc(C(=O)NCCc3ccc(S(N)(=O)=O)cc3)c3ccccc3n2)cc1OC`, in that order: 91.8 nM, 88.5 nM, 9.7 nM and 35.2 nM.
In the case of `COc1ccc2nc(-c3ccccc3OC)cc(C(=O)Nc3ccc(S(N)(=O)=O)cc3)c2c1`, the Ki at Carbonic anhydrase 1 amounted to 283 nM; at Carbonic anhydrase 12, 8.8 nM; at Carbonic anhydrase 9 it was 37.2 nM; on Carbonic anhydrase 2, 44.5 nM.

The values above are taken from ChEMBL document CHEMBL5131506, “Exploration of 2-phenylquinoline-4-carboxamide linked benzene sulfonamide derivatives as isoform selective inhibitors of transmembrane human carbonic anhydrases” (Eur J Med Chem, 2022).
